This assay deals with T1, Indoleamine 2,3-dioxygenase (Homo sapiens, UniProt P14902).
T1 construct: endogenous in cells; host or cells: SKOV-3 (ATCC HTB-77), stimulated with interferon gamma
The assay is described as follows: SKOV-3 cellular Indoleamine 2,3-dioxygenase assay. The following applies: SKOV-3 cells, 50 ng/ml Interferon gamma, 100 μM L-Tryptophan, 24 hours, N-Formylkynurenin fluorescence detection; read-out: cell based activity. How it is done:
SKOV-3 cellular Indoleamine 2,3-dioxygenase assay
SKOV-3 cells were obtained from the American Type Culture Collection (ATCC® HTB-77™) and maintained in McCoy's medium (Pan Biotech) supplemented with 10% fetal bovine serum and 1% Penicilin/Streptomycin. Cells were kept at 37° C. in a humidified incubator with 5% CO2. For assay preparation, cells were seeded at a density of 2*10^5/ml into black clear bottom 96 well plates in 100 μl medium/well supplemented with 50 ng/ml Interferon gamma (eBioscience, Thermo Fisher Scientific). After cells fully adhered to the plate, dilution series of compounds were added in medium containing additional L-Tryptophan to a final L-Tryptophan concentration of 100 μM. The cells were incubated for 24 hours. Detection of produced N-Formylkynurenin was performed by addition of 3-Methylpiperidine to a final concentration of 200 mM. The plates were sealed and heated to 65° C. for 20 minutes in a water bath. After cooling the fluorescence of each well was recorded with a Victor™X4 (PerkinElmer) plate reader at an emission wavelength of 535 nm and excitation at 405 nm (Tomek et al.; Anal Bioanal Chem (2013) 405:2515-2524., Tomek et al.; Biochim Biophys Acta. 2015 September; 1850(9):1772-80).

Data on 46 compounds can be found in patent US11078168B2, “Substituted N-hydroxyamidinoheterocycles as modulators of indoleamine 2,3-dioxygenase” (PHENEX DISCOVERY VERWALTUNGS-GMBH, priority 2016, dated 2021).

Each structure is given as a SMILES string.

T1 sequence (P14902 whole entry): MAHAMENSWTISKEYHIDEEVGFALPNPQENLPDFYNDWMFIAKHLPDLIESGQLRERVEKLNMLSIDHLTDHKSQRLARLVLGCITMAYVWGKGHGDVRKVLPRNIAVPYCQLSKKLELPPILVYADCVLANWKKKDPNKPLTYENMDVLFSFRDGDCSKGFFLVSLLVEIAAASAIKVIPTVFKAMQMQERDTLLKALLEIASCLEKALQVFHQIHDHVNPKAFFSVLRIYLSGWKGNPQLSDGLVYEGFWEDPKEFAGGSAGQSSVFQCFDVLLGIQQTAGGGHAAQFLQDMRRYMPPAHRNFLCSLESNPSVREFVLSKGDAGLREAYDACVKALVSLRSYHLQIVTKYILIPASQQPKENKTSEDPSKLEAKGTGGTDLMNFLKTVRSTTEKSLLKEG

Consider `CC(CNS(N)(=O)=O)Oc1nonc1C(=NO)Nc1ccc(F)c(Cl)c1` (single isomer, unassigned) [16/1, N-(3-Chloro-4-fluorophenyl)-N′-hydroxy-4-((1-(sulfamoylamino)propan-2-yl)oxy)-1,2,5-oxadiazole-3-carboximidamide], for which the IC50 is > 1000 nM. For `C[C@@H](CSc1nonc1C(=NO)Nc1ccc(F)c(C(F)F)c1)NC(=O)CS(N)(=O)=O` (single isomer, unassigned) [114/1] the value was < 100 nM.

In the case of `C[C@H](CSc1nonc1C(=NO)Nc1ccc(F)c(C(F)F)c1)NC(=O)CCS(N)(=O)=O` (single isomer, unassigned) [114/2], the IC50 is < 100 nM. The same measure for `C[C@@H](CSc1nonc1C(=NO)Nc1ccc(F)c(C(F)F)c1)NC(=O)CCS(N)(=O)=O` (single isomer, unassigned) [114/3]: < 100 nM; for `C[C@H](CSc1nonc1/C(=N/O)Nc1ccc(F)c(Br)c1)NC(=O)CS(N)(=O)=O` (single isomer, unassigned) [114/4]: < 100 nM.

Consider `C[C@@H](CSc1nonc1/C(=N/O)Nc1ccc(F)c(Br)c1)NC(=O)CS(N)(=O)=O` (single isomer, unassigned) [114/5], for which the IC50 was < 100 nM. For `CC(CNS(N)(=O)=O)Oc1nonc1C(=NO)Nc1ccc(F)c(Cl)c1` (single isomer, unassigned) [Example 16, N-(3-Chloro-4-fluorophenyl)-N′-hydroxy-4-((1-(sulfamoylamino)propan-2-yl)oxy)-1,2,5-oxadiazole-3-carboximidamide] the value was > 1000 nM; for `CC(CSc1nonc1C(=NO)Nc1ccc(F)c(C(F)F)c1)NC(=O)CS(N)(=O)=O` (single isomer, unassigned) [Example 114, N-(1-((4-(N-(3-(difluoromethyl)-4-fluorophenyl)-N′-hydroxycarbamimidoyl)-1,2,5-oxadiazol-3-yl)thio)propan-2-yl)-2-sulfamoylacetamide], < 100 nM. For the compound `CC(CSc1nonc1C(=NO)Nc1ccc(F)c(C(F)F)c1)NC(=O)CC(N)=O` (single isomer, unassigned) [Example 115, N^1-(1-((4-(N-(3-(Difluoromethyl)-4-fluorophenyl)-N′-hydroxycarbamimidoyl)-1,2,5-oxadiazol-3-yl)thio)propan-2-yl)malonamide], the IC50 is < 100 nM. For `CC(CSc1nonc1C(=NO)Nc1ccc(F)c(C(F)F)c1)NC(=O)CC(N)=O` (single isomer, unassigned) [Example 115/1, N^1-(1-((4-(N-(3-(difluoromethyl)-4-fluorophenyl)-N′-hydroxycarbamimidoyl)-1,2,5-oxadiazol-3-yl)thio)propan-2-yl)malonamide], the IC50 is < 100 nM. As for `CS(=O)(=O)NCCOc1nonc1C(=NO)Nc1ccc(F)c(Cl)c1` [1/1], the IC50 was < 100 nM. `O=S(=O)(NCCOc1nonc1C(=NO)Nc1ccc(F)c(Cl)c1)C(F)(F)F` [1/2]: the IC50 was > 1000 nM.

In the case of `O=S(=O)(NCCOc1nonc1C(=NO)Nc1ccc(F)c(Cl)c1)C(F)F` [1/3], the IC50 is < 100 nM. For `C[S+]([O-])NCCOc1nonc1C(=NO)Nc1ccc(F)c(Cl)c1` (stereo not shown) [1/4] the value was 100 to 1000 nM; for `Nc1c(NCCOc2nonc2C(=NO)Nc2ccc(F)c(Br)c2)c(=O)c1=O` [2/1], < 100 nM; for `Nc1c(NCCOc2nonc2C(=NO)Nc2ccc(F)c(C(F)F)c2)c(=O)c1=O` [2/3], < 100 nM. The same measure for `Nc1c(NCCCOc2nonc2C(=NO)Nc2ccc(F)c(Cl)c2)c(=O)c1=O` [2/4]: < 100 nM.

For `Nc1c(NCCOc2nonc2C(=NO)Nc2ccc(F)c(C(F)(F)F)c2)c(=O)c1=O` [2/5], the IC50 was < 100 nM. For `Nc1c(NCCOc2nonc2C(=NO)Nc2cccc(C(F)(F)F)c2)c(=O)c1=O` [2/6] the value was < 100 nM. For `Nc1c(NCCOc2nonc2C(=NO)Nc2cccc(C(F)F)c2)c(=O)c1=O` [2/7] the value was 100 to 1000 nM. Consider `N[C@@H](CC(=O)NCCOc1nonc1C(=NO)Nc1ccc(F)c(Cl)c1)C(=O)O` [3/1], for which the IC50 fell in the range of 100 to 1000 nM. For `O=C(NCCOc1nonc1C(=NO)Nc1ccc(F)c(Cl)c1)C1(O)CNC1` [3/2] the value was 100 to 1000 nM; for `O=C(NCCOc1nonc1C(=NO)Nc1ccc(F)c(Cl)c1)C1(F)CNC1` [3/3], 100 to 1000 nM. For the compound `NC(C(=O)NCCOc1nonc1C(=NO)Nc1ccc(F)c(Cl)c1)C(F)(F)F` (stereo not shown) [3/4], the IC50 is < 100 nM.

Take `NC(=O)CS(=O)(=O)NCCOc1nonc1C(=NO)Nc1ccc(F)c(C(F)(F)F)c1` [4/1]: the IC50 was < 100 nM. As for `NC(=O)CS(=O)(=O)NCCOc1nonc1C(=NO)Nc1ccc(F)c(C(F)F)c1` [4/2], the IC50 is < 100 nM. For the compound `NS(=O)(=O)NCCOc1nonc1/C(=N/O)Nc1ccc(F)c(Cl)c1` [6/1], the IC50 was < 100 nM. In the case of `NS(=O)(=O)NCCOc1nonc1C(=NO)Nc1ccc(F)c(C(F)F)c1` [6/2], the IC50 is < 100 nM. As to `NS(=O)(=O)NCCOc1nonc1C(=NO)Nc1cccc(C(F)F)c1` [6/3], the IC50 lay within 100 to 1000 nM. For `CN(CCOc1nonc1C(=NO)Nc1ccc(F)c(Cl)c1)S(N)(=O)=O` [6/4], the IC50 is 100 to 1000 nM.

Take `CNS(=O)(=O)N(C)CCOc1nonc1C(=NO)Nc1ccc(F)c(Cl)c1` [6/5]: the IC50 fell in the range of 100 to 1000 nM.

As to `CN(C)S(=O)(=O)NCCOc1nonc1C(=NO)Nc1ccc(F)c(Cl)c1` [6/6], the IC50 was < 100 nM. `NC(=O)CC(=O)NCCOc1nonc1C(=NO)Nc1ccc(F)c(Cl)c1` [7/1, N^1-(2-((4-(N-(3-chloro-4-fluorophenyl)-N′-hydroxycarbamimidoyl)-1,2,5-oxadiazol-3-yl)oxy)ethyl)malonamide]: the IC50 was < 100 nM. For the compound `COc1nonc1/C(=N/O)Nc1ccc(F)c(Br)c1` [8/1, N-(3-Bromo-4-fluorophenyl)-N-hydroxy-4-methoxy-1,2,5-oxadiazole-3-carboximidamide], the IC50 is < 100 nM. The same measure for `COc1nonc1C(=NO)Nc1ccc(F)c(Cl)c1` [8/2]: 100 to 1000 nM; for `O/N=C(\Nc1ccc(F)c(Br)c1)c1nonc1OCC(F)(F)F` [8/3, N-(3-Bromo-4-fluorophenyl)-N′-hydroxy-4-(2,2,2-trifluoroethoxy)-1,2,5-oxadiazole-3-carboximidamide]: 100 to 1000 nM; for `O=C(NCCOc1nonc1C(=NO)Nc1ccc(F)c(Cl)c1)c1ccc(F)cc1` [9/1]: 100 to 1000 nM. For `O=C(NCCOc1nonc1C(=NO)Nc1ccc(F)c(Cl)c1)c1ccc2[nH]ccc2c1` [9/2] the value was 100 to 1000 nM. The same measure for `O=C(NCCOc1nonc1C(=NO)Nc1ccc(F)c(Cl)c1)C1CC1` [9/3]: < 100 nM. Consider `O=C(NCCOc1nonc1C(=NO)Nc1ccc(F)c(Cl)c1)c1cnccn1` [9/4], for which the IC50 lay within 100 to 1000 nM. For `O=C(NCCOc1nonc1C(=NO)Nc1ccc(F)c(Cl)c1)c1nnc[nH]1` [9/5] the value was 100 to 1000 nM; for `O=C(CC1SC(=O)NC1=O)NCCOc1nonc1C(=NO)Nc1ccc(F)c(Cl)c1` (stereo not shown) [9/6], > 1000 nM.

As to `O=C(NCCCOc1nonc1C(=NO)Nc1ccc(F)c(Cl)c1)C(O)CO` (stereo not shown) [9/7], the IC50 lay in the range of 100 to 1000 nM.

On to `O=C(NCCCOc1nonc1C(=NO)Nc1ccc(F)c(Cl)c1)c1nn[nH]n1` [9/8], for which the IC50 was > 1000 nM. For `O=C(O)c1ccc(C(=O)NCCOc2nonc2C(=NO)Nc2ccc(F)c(Cl)c2)cc1` [9/9] the value was > 1000 nM; for `O=C(NCCOc1nonc1C(=NO)Nc1ccc(F)c(Cl)c1)c1n[nH]c(=O)[nH]1` [9/10], > 1000 nM.
